Data as given in patent EP0687468A2, “Pharmaceutical composition for suppressing infiltration of eosinophils” (Toyo Boseki Kabushiki Kaisha, priority 1994, dated 1995).

Assays:
[1] = test system: intraperitoneal infiltration of eosinophils; experiment: Intraperitoneal infiltration of eosinophils in rat (Ascaris extract induced); type: in vivo; conditions: 3 mg/kg orally once a day for 9 days; Asc-sensitized male Wistar rats; eosinophils counted 48 hours after antigen induction
Experimental: Ascaris extract (Asc, protein amount 8 mg) was intraperitoneally administered to male Wistar rats to sensitize them. Seven days later, 4 mg protein amount of Asc was intraperitoneally administered to induce intraperitoneal infiltration of eosinophils. Forty-eight hours after the antigen induction, abdominal cavity was washed, and the infiltrated eosinophils were counted. The test compound (3 mg/kg) was orally administered once a day for 9 days from the day of antigen sensitization to one day before recovery of the infiltrated intraperitoneal cells.

[2] = test system: infiltration of eosinophils in the airway; experiment: Infiltration of eosinophils into bronchovesicles in rats (ovalbumin induced); type: in vivo; conditions: 10 mg/kg orally 5 minutes before and 5 hours after antigen induction; OA-sensitized male BN rats; bronchial wash 24 hours later
Experimental: An ovalbumin (OA) antigen (10 mg/kg) was intramuscularly administered to male BN rats, and 5 x 10^10 nonvial Bordetella pertussis cells were intraperitoneally administered to sensitize them. Fourteen days later, the rats were exposed to 2% OA to induce infiltration of eosinophils in the airway. Twenty-four hours later, bronchial tubes were washed and infiltrated cells were recovered to count the infiltrated eosinophils. The test compound (10 mg/kg) was orally administered 5 minutes before and 5 hours after the induction with antigen.

[3] = test system: adhesion of eosinophils to vascular endothelial cells; experiment: Inhibition of adhesion of eosinophils to TNF-treated HUVEC; type: cell-based; conditions: test compound concentration at TNF treatment and adhesion reaction; HUVEC treated with 100 U/ml TNF for 6 hours; adhesion reaction 20 minutes; human peripheral blood eosinophils
Experimental: Human umbilical vein-derived endothelial cells (HUVEC) were placed in a single layer in a 96 well plate and treated with 100 U/mi tumor necrosis factor (TNF) for 6 hours. The eosinophils obtained from peripheral blood of healthy human were fluorescence-labeled and layered on the TNF-treated HUVEC. After adhesion reaction for 20 minutes, unadhered eosinophils were removed by washing and fluorescent intensity of each well of the plate was measured to determine the eosinophils adhered to the HUVEC. The test compound was added so that the concentration at TNF treatment and adhesion reaction was 10-^SM.

Row | Structure (SMILES) | Suppression of infiltration of eosinophils (%) [1] [%] | Suppression of infiltration of eosinophils (%) [2] [%] | Suppression of adhesion of eosinophils (%) [3] [%]
1 | CC(=O)OCC(=O)Nc1cc(C#N)cc(N)c1Cl [3-(acetoxyacetylamino)-5-amino-4-chlorobenzonitrile] | 55 | 53 | 70
2 | N#Cc1cc(N)c(Cl)c(NC(=O)CO)c1 [3-amino-4-chloro-5-(hydroxyacetylamino)benzonitrile] | 54 | 48 | 74
3 | COCC(=O)Nc1cc(C#N)cc(N)c1Cl [3-amino-4-chloro-5-(methoxyacetylamino)benzonitrile] | 42 | 56 | 62
